Measured values: patent US5124342A, “4-hydroxythiazoles as 5-lipoxygenase inhibitors” (Abbott Laboratories, priority 1990, dated 1992)

These compounds were tested against T1, 5-lipoxygenase (Rattus norvegicus, UniProt P12527) (assay: 5-Lipoxygenase inhibition, 20,000×g supernatant of homogenized RBL-1 cells, radiolabeled arachidonic acid). Conditions: 5-lipoxygenase from RBL-1 20,000 × g supernatant; read-out: IC50 (95% CL).
T1 construct: homogenized RBL-1 cells; endogenous in cells; host or cells: RBL-1 cells (20,000×g supernatant of homogenate)
T1 sequence (P12527 1-673): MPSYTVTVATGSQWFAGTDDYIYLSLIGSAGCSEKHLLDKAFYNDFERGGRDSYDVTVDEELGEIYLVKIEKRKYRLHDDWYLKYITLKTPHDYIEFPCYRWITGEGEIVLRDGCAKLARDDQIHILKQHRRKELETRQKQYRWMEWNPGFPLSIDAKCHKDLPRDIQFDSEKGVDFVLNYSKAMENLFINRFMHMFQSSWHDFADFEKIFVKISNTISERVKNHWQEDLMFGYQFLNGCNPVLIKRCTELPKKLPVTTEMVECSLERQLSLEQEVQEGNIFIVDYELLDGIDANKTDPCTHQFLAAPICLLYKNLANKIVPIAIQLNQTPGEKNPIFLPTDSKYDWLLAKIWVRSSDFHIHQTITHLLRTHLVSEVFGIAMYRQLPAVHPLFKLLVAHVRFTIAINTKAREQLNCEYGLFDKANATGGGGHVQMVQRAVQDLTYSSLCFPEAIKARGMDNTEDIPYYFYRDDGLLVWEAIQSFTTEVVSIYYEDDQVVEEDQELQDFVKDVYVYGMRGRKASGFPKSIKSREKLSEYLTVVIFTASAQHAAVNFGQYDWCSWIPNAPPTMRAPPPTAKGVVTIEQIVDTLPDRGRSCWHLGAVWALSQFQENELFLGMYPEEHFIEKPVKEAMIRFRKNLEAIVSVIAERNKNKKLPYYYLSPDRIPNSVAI
Type: biochemical
Method: Proc., Fed. Am. Soc. Exp. Biol. 1984, 43, […]. Reactions were initiated by the addition of radiolabeled arachidonic acid and terminated by acidification and ether extraction. Reaction products were separated from nonconvented substrate by thin layer chromatography and measured by liquid scintillation spectroscopy. Inhibition of 5-lipoxygenase activity was calculated as the ratio of the amounts of product formed in the presence and absence of inhibitor.
COc1ccc2nc(-c3nc(O)c(C)s3)sc2c1 [Example 6, 2-[2-(6-Methoxybenzothiazolyl)]-4-hydroxy-5-methylthiazole] showed an IC50 of 890 nM.
For Cc1sc(-c2ccc(F)cc2)nc1O [Example 9, 2-(4-Fluorophenyl)-4-hydroxy-5-methylthiazole], the IC50 was 350 nM.
Cc1sc(-c2ccc(Br)cc2)nc1O [Example 10, 2-(4-Bromophenyl)-4-hydroxy-5-methylthiazole] showed an IC50 of 510 nM.
In the case of Cc1sc(-c2ccc(Cl)cc2)nc1O [Example 11, 2-(4-Chlorophenyl)-4-hydroxy-5-methylthiazole], the IC50 is reported as 570 nM.
Work on Cc1sc(-c2ccc(C(=O)OCCc3ccccc3)cc2)nc1O [Example 13, 2-(4-Carbo-2-phenethoxyphenyl)-4-hydroxy-5-methylthiazole] yielded an IC50 of 980 nM.
For COC(=O)c1ccc(-c2nc(O)c(C)s2)cc1 [Example 17, 2-(4-Carbomethoxyphenyl)-4-hydroxy-5-methylthiazole], the IC50 was 880 nM.
Compound CC(=O)c1ccc(-c2nc(O)c(C)s2)cc1 [Example 18, 2-(4-Acetylphenyl)-4-hydroxy-5-methylthiazole] has an IC50 of 900 nM.
Cc1sc(-c2ccc(C#N)cc2)nc1O [Example 20, 2-(4-Cyanophenyl)-4-hydroxy-5-methylthiazole] showed an IC50 of 700 nM.
CCOC(=O)c1ccc(-c2nc(O)c(C)s2)cc1 [Example 23, 2-(4-Carboethoxyphenyl)-4-hydroxy-5-methylthiazole] showed an IC50 of 710 nM.
Cc1sc(-c2ccccc2F)nc1O [Example 24, 2-(2-Fluorophenyl)-4-hydroxy-5-methylthiazole] was tested, and the IC50 was 500 nM.
Cc1sc(-c2cccc(F)c2)nc1O [Example 25, 2-(3-Fluorophenyl)-4-hydroxy-5-methylthiazole] was tested, and the IC50 was 660 nM.
For Cc1sc(-c2cccc(Br)c2)nc1O [Example 26, 2-(3-Bromophenyl)-4-hydroxy-5-methylthiazole], the IC50 was 480 nM.
Cc1cccc(-c2nc(O)c(C)s2)c1Cl [Example 29, 2-(2-Chloro-3-methylphenyl)-4-hydroxy-5-methylthiazole] gave an IC50 of 820 nM.
Compound Cc1sc(-c2ccccc2)nc1O [Example 31, 2-Phenyl-4-hydroxy-5-methylthiazole] has an IC50 of 960 nM.
In the case of Cc1ccc(-c2nc(O)c(C)s2)cc1 [Example 33, 2-(4-Methylphenyl)-4-hydroxy-5-methylthiazole], the IC50 is reported as 630 nM.
Work on Oc1nc(-c2ccccc2)sc1-c1ccccc1 [Example 34, 2-Phenyl-4-hydroxy-5-phenylthiazole] yielded an IC50 of 530 nM.
CCc1sc(-c2ccccc2)nc1O [Example 35, 2-Phenyl-4-hydroxy-5-ethylthiazole] was tested, and the IC50 was 830 nM.
CCCc1sc(-c2ccccc2)nc1O [Example 36, 2-Phenyl-4-hydroxy-5-propylthiazole] showed an IC50 of 580 nM.
In the case of Oc1nc(-c2ccccc2)sc1CCc1ccccc1 [Example 38, 2-Phenyl-4-hydroxy-5-phenethylthiazole], the IC50 is reported as 690 nM.
With CCOC(=O)CCC(=O)Oc1nc(-c2ccccc2)sc1-c1ccccc1 [Example 53, 2-Phenyl-4-ethyl succinyloxy-5-phenylthiazole] the IC50 was 750 nM.
With CCCc1sc(-c2ccccc2)nc1OC(=O)OCC [Example 54, 2-Phenyl-[4-(carboethoxy)oxy]-5-propylthiazole] the IC50 was 910 nM.
COC(=O)c1ccc(-c2nc(OC(C)=O)c(C)s2)cc1 [Example 60, 2-(4-Carbomethoxyphenyl)-4-acetoxy-5-methylthiazole] showed an IC50 of 690 nM.
CCCCc1sc(-c2ccccc2)nc1OC(C)=O [Example 67, 2-Phenyl-4-acetoxy-5-butylthiazole] was tested, and the IC50 was 950 nM.

Same assay, conditions: at 0.3 μM; RBL-1 20,000 × g supernatant; read-out: % Inhibition at μM Conc.
Compound Oc1nc(-c2cccnc2)sc1-c1ccccc1 [Example 41, 2-(3-Pyridyl)-4-hydroxy-5-phenylthiazole] has an inhibition at 0.3 µM of 83%.
COc1ccc(-c2nc(O)c(-c3ccccc3)s2)cc1 [Example 43, 2-(4-Methoxyphenyl)-4-hydroxy-5-phenylthiazole] gave an inhibition at 0.3 µM of 88%.

Same assay, conditions: at 0.4 μM; RBL-1 20,000 × g supernatant; read-out: % Inhibition at μM Conc.
Compound Cc1ccc(-c2nc(O)c(-c3ccccc3)s2)cc1 [Example 46, 2-(4-Methylphenyl)-4-hydroxy-5-phenylthiazole] has an inhibition at 0.4 µM of 91%.
Oc1nc(-c2ccc(F)cc2)sc1-c1ccccc1 [Example 47, 2-(4-Fluorophenyl)-4-hydroxy-5-phenylthiazole] was tested, and the inhibition at 0.4 µM was 82%.
CCOc1ccc(-c2nc(O)c(-c3ccccc3)s2)cc1 [Example 48, 2-(4-Ethoxyphenyl)-4-hydroxy-5-phenylthiazole] was tested, and the inhibition at 0.4 µM was 77%.
For CC(=O)Oc1nc(-c2ccccc2)sc1-c1ccccc1 [Example 50, 2-Phenyl-4-acetoxy-5-phenylthiazole], the inhibition at 0.4 µM was 88%.

Same assay, conditions: at 0.5 μM; RBL-1 20,000 × g supernatant; read-out: % Inhibition at μM Conc.
For CC(=O)Oc1nc(-c2ccc(C)cc2)sc1-c1ccccc1 [Example 62, 2-(4-Methylphenyl)-4-acetoxy-5-phenylthiazole], the inhibition at 0.5 µM was 93%.

Same assay, conditions: at 0.75 μM; RBL-1 20,000 × g supernatant; read-out: % Inhibition at μM Conc.
For CC(=O)Oc1nc(-c2ccc(-c3ccccc3)cc2)sc1-c1ccccc1 [Example 65, 2-Biphenyl-4-acetoxy-5-phenylthiazole], the inhibition at 0.75 µM was 82%.

Same assay, conditions: at 1 μM; RBL-1 20,000 × g supernatant; read-out: % Inhibition at μM Conc.
Work on CCCCCc1nc(OC(C)=O)c(CCC)s1 [Example 68, 2-Pentyl-4-acetoxy-5-propylthiazole] yielded an inhibition at 1 µM of 79%.
